Experimental findings from US8445510B2, “Fused bicyclic kinase inhibitors” (OSI Pharmaceuticals, LLC, priority 2011, dated 2013) are described below.

Structures are written as SMILES.

Assay [1] has as its system Karpas-299 cells. The assay is described as follows: Karpas-299 cell proliferation assay (CellTiter-Glo). The class given is cell-based. The note with it: Homo sapiens, 72 h; Karpas-299 cell line (NPM-ALK); 3 days incubation; at least duplicate experiments; read-out: Prolif. IC50. For orientation: ATP-based viability assays read luminescence as a measure of living cells.

Assay [2] has as its target T1, Aurora B (Homo sapiens, UniProt Q96GD4).
T1 construct: HT-29 cells grown in complete growth media
The assay is described as follows: Aurora B cell mechanistic assay (HT-29), phospho-Histone H3 (Ser10) ELISA. Particulars: HT-29 cell line; inhibition of phospho-Histone H3 (Ser10); at least duplicate experiments (italicized if single experiment); read-out: Aurora B mech IC50. The class given is cell-based. The protocol: The cellular activity of the compounds of the present invention against Aurora B may be determined by the following procedure. HT-29 cells grown in complete growth media (McCoy's 5A, 10% FCS, 1% L-glutamine) were plated into wells of a 96 well tissue culture plate (Falcon 3072) at a cell density of 4×10^4 cells/0.09 ml media/well. Cells were subsequently incubated overnight in a 5% CO2 humidified 37° C. incubator. The following day 10 μl of a 10× stock of test compound serially diluted in media was added to the cells and incubated for 1 h at 37° C. at which time Calyculin A (Cell Signaling #9902) was added at a concentration of 100 nM and cells incubated for an additional 30 minutes in a 5% CO2 humidified 37° C. incubator. Media was then aspirated and cells lysed using a Triton based lysis buffer. Lysates were transferred to a pre-coated anti-Histone H3 antibody coated plate supplied by Cell Signaling in their PathScan phospho-Histone H3 (Ser10) ELISA kit (#7155). After an overnight incubation with lysate the ELISA was continued following the manufacturer's instructions. Signal was measured on a Wallac Victor plate reader at 450 nm. DMSO control treated cells served as 100% signal and an Aurora B kinase inhibitor served as 100% inhibition. The percent inhibition of phospho-Histone H3 (Ser10) was expressed as % control. IC50 values were calculated from the percent control data using a standard four-parameter model.
The IC50 values of exemplary compounds of the present invention determined in a Aurora B cell mechanistic assay using the HT-29 cell line according to the procedures described herein in at least duplicate experiments are abbreviated as follows and are shown in Table 4: A, IC50≦0.05 μM; B, 0.05 μM<IC50≦0.2 μM; C, 0.2 μM<IC50≦1 μM; D, IC50>1 μM; ND, not determined. If only data from single experiments are available, the abbreviations are italicized. The Example # of Table 4 corresponds to the compound example number as illustrated in the Examples section.
On the technique in general: In an ELISA, binding on a coated surface is turned into a signal by an enzyme label.

T1 sequence (Q96GD4 whole entry): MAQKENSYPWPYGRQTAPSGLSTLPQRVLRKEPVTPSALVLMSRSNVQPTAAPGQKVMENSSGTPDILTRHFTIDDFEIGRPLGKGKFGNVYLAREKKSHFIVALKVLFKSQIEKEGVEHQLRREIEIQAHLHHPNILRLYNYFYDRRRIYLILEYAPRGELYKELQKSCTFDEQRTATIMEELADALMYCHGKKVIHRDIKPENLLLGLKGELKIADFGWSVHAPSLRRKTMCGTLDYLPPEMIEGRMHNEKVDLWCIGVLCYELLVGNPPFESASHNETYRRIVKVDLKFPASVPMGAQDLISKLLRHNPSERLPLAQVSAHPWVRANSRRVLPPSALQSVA

A word on the IC50: it is the point on the concentration scale where inhibition reaches its midpoint. As to `COc1ccc(F)c(Cl)c1[C@@H](C)c1c[nH]c2ncc(-c3c[nH]nc3C)cc12` [Example 1, 3-[(1S)-1-(2-Chloro-3-fluoro-6-methoxyphenyl)ethyl]-5-(3-methyl-1H-pyrazol-4-yl)-1H-pyrrolo[2,3-b]pyridine], the values for the IC50 in assay [1] and in assay [2] were 50 to 200 nM and 200 to 1000 nM, respectively.

As to `COc1ccc(F)c(Cl)c1[C@@H](C)c1c[nH]c2ncc(-c3cn(C)nc3C)cc12` [Example 2, 3-[(1S)-1-(2-Chloro-3-fluoro-6-methoxyphenyl)ethyl]-5-(1,3-dimethyl-1H-pyrazol-4-yl)-1H-pyrrolo[2,3-b]pyridine], the IC50 in assay [1] and in assay [2] was 50 to 200 nM each time.

On to `COc1ccc(F)c(Cl)c1[C@@H](C)c1c[nH]c2ncc(-c3cnn(C)c3C)cc12` [Example 3, 3-[(1S)-1-(2-Chloro-3-fluoro-6-methoxyphenyl)ethyl]-5-(1,5-dimethyl-1H-pyrazol-4-yl)-1H-pyrrolo[2,3-b]pyridine], for which the values for the IC50 in assay [1] and in assay [2] were 50 to 200 nM and over 1000 nM, respectively.

`COc1ccc(F)c(Cl)c1[C@@H](C)c1c[nH]c2ncc(-c3c(C)nn(C)c3C)cc12` [Example 4, 3-[(1S)-1-(2-Chloro-3-fluoro-6-methoxyphenyl)ethyl]-5-(1,3,5-trimethyl-1H-pyrazol-4-yl)-1H-pyrrolo[2,3-b]pyridine]: the IC50 in assay [1] was 50 to 200 nM; in assay [2] it was over 1000 nM.

Turning to `COc1ccc(F)c(Cl)c1[C@@H](C)c1c[nH]c2ncc(-c3c(C)nn(CC(C)(C)O)c3C)cc12` [Example 5, 1-(4-{3-[(1S)-1-(2-Chloro-3-fluoro-6-methoxyphenyl)ethyl]-1H-pyrrolo[2,3-b]pyridin-5-yl}-3,5-dimethyl-1H-pyrazol-1-yl)-2-methylpropan-2-ol], the IC50 in assay [1] was at most 50 nM; in assay [2], over 1000 nM.

As for `COc1ccc(F)c(Cl)c1[C@@H](C)c1c[nH]c2ncc(-c3c(C)nn([C@H]4CC[C@H](O)CC4)c3C)cc12` [Example 6, trans-4-(4-{3-[(1S)-1-(2-Chloro-3-fluoro-6-methoxyphenyl)ethyl]-1H-pyrrolo[2,3-b]pyridin-5-yl}-3,5-dimethyl-1H-pyrazol-1-yl)cyclohexanol], the IC50 in assay [1] was at most 50 nM; in assay [2], over 1000 nM.

In the case of `COc1ccc(F)c(Cl)c1[C@@H](C)c1c[nH]c2ncc(-c3cn(CC(C)(C)O)nc3C)cc12` [Example 7, 1-(4-{3-[(1S)-1-(2-Chloro-3-fluoro-6-methoxyphenyl)ethyl]-1H-pyrrolo[2,3-b]pyridin-5-yl}-3-methyl-1H-pyrazol-1-yl)-2-methylpropan-2-ol], the half-maximal inhibitory concentration (IC50) in assay [1] lay in the range of 50 to 200 nM; in assay [2], 200 to 1000 nM.

Turning to `COc1ccc(F)c(Cl)c1[C@@H](C)c1c[nH]c2ncc(-c3cnn(CC(C)(C)O)c3C)cc12` [Example 8, 1-(4-{3-[(1S)-1-(2-Chloro-3-fluoro-6-methoxyphenyl)ethyl]-1H-pyrrolo[2,3-b]pyridin-5-yl}-5-methyl-1H-pyrazol-1-yl)-2-methylpropan-2-ol], the IC50 in assay [1] lay in the range of 50 to 200 nM; in assay [2] it was 200 to 1000 nM.

On to `COc1ccc(F)c(Cl)c1[C@@H](C)c1c[nH]c2ncc(-c3cnn(C[C@H](O)CO)c3C)cc12` [Example 10, (2S)-3-(4-{3-[(1S)-1-(2-Chloro-3-fluoro-6-methoxyphenyl)ethyl]-1H-pyrrolo[2,3-b]pyridin-5-yl}-5-methyl-1H-pyrazol-1-yl)propane-1,2-diol], for which the values for the half-inhibitory concentration (IC50) in assay [1] and in assay [2] were at most 50 nM and 200 to 1000 nM, respectively.

On to `CCc1c(-c2cnc3[nH]cc([C@H](C)c4c(OC)ccc(F)c4Cl)c3c2)cnn1CC(C)(C)O` [Example 11, 1-(4-{3-[(1S)-1-(2-Chloro-3-fluoro-6-methoxyphenyl)ethyl]-1H-pyrrolo[2,3-b]pyridin-5-yl}-5-ethyl-1H-pyrazol-1-yl)-2-methylpropan-2-ol], for which the values for the IC50 in assay [1] and in assay [2] were 200 to 1000 nM and over 1000 nM, respectively.

`CCc1nn(CC(C)(C)O)cc1-c1cnc2[nH]cc([C@H](C)c3c(OC)ccc(F)c3Cl)c2c1` [Example 12, 1-(4-{3-[(1S)-1-(2-Chloro-3-fluoro-6-methoxyphenyl)ethyl]-1H-pyrrolo[2,3-b]pyridin-5-yl}-3-ethyl-1H-pyrazol-1-yl)-2-methylpropan-2-ol]: the IC50 in assay [1] was 50 to 200 nM; in assay [2], over 1000 nM.

Consider `COc1ccc(F)c(Cl)c1[C@@H](C)c1c[nH]c2ncc(-c3cnn([C@H]4CC[C@H](C(=O)N(C)C)CC4)c3C)cc12` [Example 14, Trans-4-(4-{3-[(1S)-1-(2-chloro-3-fluoro-6-methoxyphenyl)ethyl]-1H-pyrrolo[2,3-b]pyridin-5-yl}-5-methyl-1H-pyrazol-1-yl)-N,N-dimethylcyclohexanecarboxamide], for which the IC50 in assay [1] is at most 50 nM; in assay [2] it was over 1000 nM.

Regarding `CNC(=O)[C@H]1CC[C@H](n2ncc(-c3cnc4[nH]cc([C@H](C)c5c(OC)ccc(F)c5Cl)c4c3)c2C)CC1` [Example 17, trans-4-(4-{3-[(1S)-1-(2-Chloro-3-fluoro-6-methoxyphenyl)ethyl]-1H-pyrrolo[2,3-b]pyridin-5-yl}-5-methyl-1H-pyrazol-1-yl)-N-methyl cyclohexanecarboxamide], the half-maximal inhibitory concentration (IC50) is at most 50 nM in assay [1] and 200 to 1000 nM in assay [2].

For the compound `Cc1c(-c2cnc3[nH]cc([C@H](C)c4c(OC(F)F)ccc(F)c4Cl)c3c2)cnn1C1CCNCC1` [Example 96, 3-{(1S)-1-[2-Chloro-6-(difluoromethoxy)-3-fluorophenyl]ethyl}-5-[5-methyl-1-(piperidin-4-yl)-1H-pyrazol-4-yl]-1H-pyrrolo[2,3-b]pyridine], in assay [1], the concentration for half-maximal inhibition (IC50) is at most 50 nM.

For the compound `CC(=O)N1CCC(n2ncc(-c3cnc4[nH]cc([C@H](C)c5c(OC(F)F)ccc(F)c5Cl)c4c3)c2C)CC1` [Example 97, 1-{4-[4-(3-{(1S)-1-[2-Chloro-6-(difluoromethoxy)-3-fluorophenyl]ethyl}-1H-pyrrolo[2,3-b]pyridin-5-yl)-5-methyl-1H-pyrazol-1-yl]piperidin-1-yl}ethanone], the IC50 in assay [1] is at most 50 nM.

Take `COc1ccc(F)c(Cl)c1[C@@H](C)c1c[nH]c2ncc(-c3cn([C@H]4CC[C@H](O)CC4)nc3OC)cc12` [Example 99, trans-4-(4-{3-[(1S)-1-(2-chloro-3-fluoro-6-methoxyphenyl)ethyl]-1H-pyrrolo[2,3-b]pyridin-5-yl}-3-methoxy-1H-pyrazol-1-yl)cyclohexanol]: the IC50 in assay [1] was 50 to 200 nM.

Regarding `COc1nn([C@H]2CC[C@H](O)CC2)cc1-c1cnc2[nH]cc([C@H](C)c3c(OC(F)F)ccc(F)c3Cl)c2c1` [Example 100, trans-4-[4-(3-{(1S)-1-[2-chloro-6-(difluoromethoxy)-3-fluorophenyl]ethyl}-1H-pyrrolo[2,3-b]pyridin-5-yl)-3-methoxy-1H-pyrazol-1-yl]cyclohexanol], in assay [1], the IC50 was in the range of 50 to 200 nM.

As for `COc1ccc(F)c(Cl)c1[C@@H](CF)c1c[nH]c2ncc(-c3cnn([C@H]4CC[C@H](O)CC4)c3C)cc12` [Example 121, trans-4-(4-{3-[(1S)-1-(2-Chloro-3-fluoro-6-methoxyphenyl)-2-fluoroethyl]-1H-pyrrolo[2,3-b]pyridin-5-yl}-5-methyl-1H-pyrazol-1-yl)cyclohexanol], in assay [1], the IC50 was at most 50 nM.

As for `Cc1c(-c2cnc3[nH]cc([C@@H](CF)c4c(OC(F)F)ccc(F)c4Cl)c3c2)cnn1[C@H]1CC[C@H](O)CC1` [Example 123, trans-4-[4-(3-{(1R)-1-[2-chloro-6-(difluoromethoxy)-3-fluorophenyl]-2-fluoroethyl}-1H-pyrrolo[2,3-b]pyridin-5-yl)-5-methyl-1H-pyrazol-1-yl]cyclohexanol], in assay [1], the 50% inhibitory concentration (IC50) was 50 to 200 nM.

On to `Cc1c(-c2cnc3[nH]cc([C@H](CF)c4c(OC(F)F)ccc(F)c4Cl)c3c2)cnn1[C@H]1CC[C@H](O)CC1` [Example 124, trans-4-[4-(3-{(1S)-1-[2-chloro-6-(difluoromethoxy)-3-fluorophenyl]-2-fluoroethyl}-1H-pyrrolo[2,3-b]pyridin-5-yl)-5-methyl-1H-pyrazol-1-yl]cyclohexanol], for which the half-inhibitory concentration (IC50) in assay [1] was at most 50 nM.

Consider `C[C@H](c1c(OC(F)F)ccc(F)c1Cl)c1c[nH]c2ncc(-c3cnc(N4CCC(O)CC4)n3C)cc12` [Example 125, 1-[5-(3-{(1S)-1-[2-Chloro-6-(difluoromethoxy)-3-fluorophenyl]ethyl}-1H-pyrrolo[2,3-b]pyridin-5-yl)-1-methyl-1H-imidazol-2-yl]piperidin-4-ol], for which the 50% inhibitory concentration (IC50) in assay [1] is at most 50 nM.

In the case of `C[C@H](c1c(OC(F)F)ccc(F)c1Cl)c1c[nH]c2ncc(-c3cnc([C@H]4CC[C@H](O)CC4)n3C)cc12` [Example 126, trans-4-[5-(3-{(1S)-1-[2-Chloro-6-(difluoromethoxy)-3-fluorophenyl]ethyl}-1H-pyrrolo[2,3-b]pyridin-5-yl)-1-methyl-1H-imidazol-2-yl]cyclohexanol], the IC50 in assay [1] is at most 50 nM.
